Measured values from patent US9585389B2, “Microbicidal composition” (Dow Global Technologies LLC, priority 2013, dated 2017).
Read-outs that look alike come from different tables or passages of the source.

Experiments:
[1] = test system: Pseudomonas aeruginosa ATCC #15442; experiment: MIC / synergy index test in 96 well microtiter plates; assay type: cell-based; conditions: 1/10 TSB; for MIC: Pseudomonas aeruginosa, ATCC15442, 24 h, Phenoxyethanol alone, read-out: CB (MIC of compound B alone)
Experimental: (§1) Surfactants and biocides were evaluated for synergy by determining the synergy index (S.I.) of the combination. Synergy index was calculated based on minimum inhibitory concentrations (MIC) of two antimicrobial compounds (A and B) alone and in combinations. The tests organisms were Gram negative bacteria (Pseudomonas aeruginosa ATCC #15442),
(§2) Gram positive bacteria (Staphylococcus aureus ATCC #6538), yeast (Candida albicans ATCC#10203) and mold (Aspergillus niger ATCC#16404). Contact time for the bacteria was 24 and 48 hours, yeast was 48 and 72 hrs, and 3 and 7 days for mold. The test was carried out in 96 well microtiter plates. • Surf. A R^1O(CH2CH(CH3)o)5(CH2CH2O)9H, where R^1 is 2-ethylhexyl • Surf. D R^2O(CH2CH(CH3)o)3(CH2CH2O)5H • Surf. E R^2O(CH2CH(CH3)o)3(CH2CH2O)7H • In Surf. D and Surf. E, R^2 is a mixture of C8-C14 linear alkyl groups (70% C8-C10 linear alkyl and 30% C12-C14 linear alkyl)
(§3) The pH of the Triptic soy broth was 7.3 and the Potato dextrose broth was 5.1.
(§4) SI is calculated as follows: Ca/CA+Cb/CB=Synergy Index (“SI”)
(§5) Wherein: • CA=concentration of compound A in ppm, acting alone, which produced an end point (MIC of Compound A). • Ca=concentration of compound A in ppm, in the mixture, which produced an end point. • CB=concentration of compound B in ppm, acting alone, which produced an end point (MIC of Compound B). • Cb=concentration of compound B in ppm, in the mixture, which produced an end point. When the sum of Ca/CA and Cb/CB is greater than one, antagonism is indicated.

[2] = test system: Staphylococcus aureus ATCC #6538; experiment: as above; assay type: cell-based; conditions: 1/10 TSB; for MIC: Staphylococcus aureus, ATCC6538, 24 h, Phenoxyethanol alone
Experimental: as §1, §2, §3, §4, §5

[3] = test system: Candida albicans ATCC#10203; experiment: as above; assay type: cell-based; conditions: ATCC10203, 48 h, read-out: CB (MIC of compound B alone)
Experimental: as §1, §2, §3, §4, §5

[4] = test system: Aspergillus niger ATCC#16404; experiment: as above; assay type: cell-based; conditions: ATCC16404, read-out: CB (MIC of compound B alone)
Experimental: as §1, §2, §3, §4, §5

[5] = Stability Testing of phenoxyethanol/surfactant solutions; assay type: physicochemical; conditions: 33% phenoxyethanol in 70% isopropanol with surfactant, PE:Surfactant 1:27
Experimental: A solution of phenoxyethanol in 70% (v/v) isopropanol was made and diluted with surfactant to give the desired ratios of biocide to surfactant. Additional 70% isopropanol was added as needed to give a 33 wt % solution of phenoxyethanol. The samples were split into three vials. One vial was stored at room temperature, one was stored at 40 C and one was stored at 50 C. […] Samples that were cloudy or highly discolored were determined to be unstable.

## OCCOc1ccccc1 [Phenoxyethanol, 2-phenoxy-1-ethanol]
[1]; series with Surf. A, inoculum 8.134E+07CFU/ml
  MIC: 5000 µg/mL
[1]; series with Surf. D, inoculum 1.16E+05CFU/ml
  MIC: 4000 µg/mL
[1]; series with Surf. E, inoculum 5.727E+07CFU/ml
  MIC: 4000 µg/mL
[2]; series with Surf. A, inoculum 1.156E-+06CFU/ml, read-out: CB (MIC of compound B alone)
  MIC: 8000 µg/mL
[2]; series with Surf. D, inoculum 1.808E+05, read-out: CB (MIC of compound B alone)
  MIC: 10000 µg/mL
[2]; series with Surf. E, inoculum 1.808E+06CFU/ml, read-out: CB (MIC of compound B alone)
  MIC: 8000 µg/mL
[3]
  MIC: 4000 µg/mL
[4]
  MIC: 4000 µg/mL

## CCCCC(CC)COCC(C)OCC(C)OCC(C)OCC(C)OCC(C)OCCOCCOCCOCCOCCOCCOCCOCCOCCO (centres unmarked) [Surf. A, R^1O(CH2CH(CH3)o)5(CH2CH2O)9H, where R^1 is 2-ethylhexyl]
[1]; Surf. A alone, 24 hrs, inoculum 8.134E+07CFU/ml
  CA (MIC of compound A alone): >20000 ppm
[2]; Surf. A alone, 24 hrs, inoculum 1.156E-+06CFU/ml
  CA (MIC of compound A alone): >20000 ppm

## POLYSORBATE 20
[5]; Day 2, 40° C.
  Stability (appearance): Slightly
[5]; Day 2, 50° C.
  Stability (appearance): Slightly
[5]; Day 7, 40° C.
  Stability (appearance): Slightly
[5]; Day 7, 50° C.
  Stability (appearance): Slightly
